Assay results reported in PubChem BioAssay (NCI).
Values joined by “and” are separate entries in the source; they are usually repeats but may differ in a detail not shown here. Equal values may be shown once.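 Values below derive from 48-hour exposures of cells grown in 96-well plates, with endpoints linearly interpolated between the two concentrations bracketing the appropriate inhibition level. GI50 = concentration required for 50% inhibition of growth. TGI is the concentration that stops growth completely.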

Assays:
Experiment in all cases: growth of human tumour cells (NCI), 48 h
[1] = tested on: MCF7 breast
[2] = tested on: SR leukemia
[3] = tested on: 786-0 renal
[4] = tested on: RPMI-8226 leukemia
[5] = tested on: NCI-H226 lung
[6] = tested on: CAKI-1 renal
[7] = tested on: T-47D breast
[8] = tested on: PC-3 prostate
[9] = tested on: MDA-MB-231 breast
[10] = tested on: SF-268 CNS

Row | SMILES | GI50 [1] [µM] | TGI [1] [µM] | GI50 [2] [µM] | TGI [2] [µM] | GI50 [3] [µM] | TGI [3] [µM] | GI50 [4] [µM] | TGI [4] | GI50 [5] [µM] | TGI [5] | GI50 [6] | TGI [6] [µM] | GI50 [7] [µM] | TGI [7] [µM] | GI50 [8] [µM] | TGI [8] [µM] | GI50 [9] [µM] | TGI [9] [µM] | GI50 [10] [µM] | TGI [10]
1 | Nc1ccccc1NC(=O)c1ccc(CN2CCC/C(=C\c3ccccn3)C2=O)cc1 | 0.797 | > 100 | 0.47 | > 100 | 2.71 | 30.2 | 0.686 | 5.66 µM | 2.62 | 9.59 µM | 1.41 µM | 9.19 | 0.806 | 9.59 | 1.33 | > 100 | 4.04 | > 100 | 2.96 | 13 µM
2 | CNc1cc2nc3cc(NC)c(C)cc3cc2cc1C |  |  | 0.53 | > 100 | 0.683 | 2.05 | 1.04 | 5.12 µM | 0.81 | 18.8 µM | 2.88 µM | 17.1 | 1.1 | 18.4 | 1.07 | 15.7 | 1.08 | 2.88 | 0.687 | 10.9 µM
3 | CC1=C(C(=O)Nc2ccc3[nH]ncc3c2)C(c2ccc(Cl)c(Cl)c2)CC(=O)N1 (stereo not drawn) | > 24.1 | > 25 | > 25 | > 25 | > 25 | > 25 | > 25 | > 25 µM | 6.09 | > 25 µM | > 16 µM | > 25 | > 25 | > 25 | > 20.4 | > 25 | 15.9 | > 25 | 9.62 | > 25 µM
4 | CC1(C)CCCC(C)(C2CCC3(C)C2C(O)CC2C4(C)CCC(O)C(C)(C)C4C(O)CC23C)O1 (stereo not drawn) |  | 29.3 |  | 86.1 |  | 72.5 |  |  |  | 40.1 µM |  | 17.6 |  | 28.9 |  | 25.7 |  | 34.8 |  | 31.9 µM
5 | C=C1COC(O)(C2OCOC(C3CC(=O)NC(=O)C3)C2O)C1C (stereo not drawn) |  |  |  | 0.00841 | 0.00362 | 0.0532 | 0.00236 | 0.0063 µM and 0.0127 µM and 0.0451 µM | 0.00356 | 0.019 µM and 0.0216 µM | 0.00394 µM and 0.019 µM |  | 0.00457 |  | 0.00629 | 0.0501 |  | 0.0328 | 0.00577 | 0.0423 µM and 0.033 µM
6 | CCCCCCC/C=C/[C@H]1O[C@]2(O)C(=O)C=C3C[C@@H](O[C@@H]4O[C@H](CO)[C@@H](O)C(O)[C@@H]4O)C[C@@H]3[C@H]2C=C1C (stereo partly drawn) | 1.05 | 7.88 | 0.717 | 2.85 | 2.35 | 7.08 | 0.711 | 1.98 µM | 4.52 | 13.7 µM |  |  | 0.919 | 5.34 | 1.56 | 11.7 | 1.2 | 5.53 | 4.47 | 10.3 µM
7 | CC(C)(CCN=C(N)Nc1ccccn1)c1ccc(C(F)(F)F)cc1 | 12.2 | 27.4 | 15.1 | 32.9 | 13.3 | 28.2 | 6.58 | 26.7 µM | 13.6 | 31.7 µM |  |  | 11.1 | 28.5 | 14.2 | 28.9 | 14.9 | 29.8 | 16.5 | 35.6 µM
8 | CCOC(=O)c1ccc2c(c1)nc(/C=C/c1ccc(Cl)cc1)n2-c1cc(C(C)(C)C)[nH]n1 | 2.71 | 10.2 |  |  | 2.98 | 9.29 | 8.14 | > 100 µM | 3.63 | 27.2 µM | 5.04 µM | 61.2 | 5.82 | 52.4 | 5.85 | 47 | 2.37 | 7.57 | 5.86 | > 100 µM
9 | COc1cc2nc(-c3ccc(Cl)cc3)cc(OCCCN3CCCC3)c2cc1OC | 1.33 | 3.07 | 0.251 | 1.38 | 2.78 | 12.1 |  |  | 0.898 | 3.21 µM | 0.303 µM | 4.15 | 1.02 | 10.5 | 1.76 | 10.3 | 0.907 | 4.08 | 2.53 | 15.5 µM
10 | C=C1CC[C@@H]2[C@](C)(COC(C)=O)[C@H](OC(C)=O)CC[C@@]2(C)[C@@H]1CC(Nc1ccc(S(=O)(=O)Nc2cc(C)on2)cc1)C1=CCOC1=O (stereo partly drawn) |  |  | 0.375 | 3.36 | 1.96 | 3.66 | 1.54 | 5.43 µM |  |  | 4.14 µM | 14.7 | 2.8 | 7.37 | 1.98 | 4.31 | 2.22 | 5.11 | 2.35 | 6.11 µM
11 | CC1SC2(CCC(c3ccccc3)CC2)N(NC(=O)c2[nH]c3ccc(F)cc3c2-c2ccccc2)C1=O (stereo not drawn) | 4.78 | 24.1 |  |  | 2.92 | 12.2 | 0.804 | 2.91 µM | 11 | 29.8 µM | 4.38 µM | 24.5 | 14.2 | > 100 | 1.56 | 5.34 | 14.8 | 44 | 21.2 | > 100 µM
12 | N#Cc1ccsc1NC(=O)COC(=O)c1cccc(S(=O)(=O)N2CCc3ccccc32)c1 | 19.8 | > 100 | 22.9 | > 100 | 47.3 | > 100 | 17.4 | > 100 µM | > 100 | > 100 µM | 42.4 µM | > 100 | 37.5 | > 100 | 27.1 | > 100 |  |  | 13.4 | > 100 µM
13 | CCCCCc1cc[n+](CC(=O)c2ccc([N+](=O)[O-])cc2)cc1 | 3.37 | 13.4 |  |  | 20.1 | 74.2 | 3.18 | 17 µM | 6.73 | 24.4 µM | 11.2 µM | 34.8 | 6.02 | 28.2 | 4.14 | 34.7 | 6.46 | 35.7 | 19.4 | > 100 µM
